IC50 data for 24 compounds are collected here from ChEMBL document CHEMBL1144644, “Synthesis and biological evaluation of 12 allenic aromatic ethers” (Bioorg Med Chem Lett, 2007).

Bounds are passed on as bounds.

One assay relates to KB. The experiment in a line: Antitumor activity against KB cells by MTT assay. The format is functional, cell-based. As to conditions: Homo sapiens.
The nature of assay [1]: Antitumor activity against KBv200 cells by MTT assay. The format is functional, cell-based. As to conditions: Homo sapiens. (In general: Tetrazolium dyes change colour on reduction, which living cells bring about.)

Usually IC50 stands for the point on the concentration scale where inhibition reaches its midpoint. As for `O=C(O)/C=C/c1ccc(O)cc1` [COUMARIC ACID], the IC50 (in the assay on KB; in assay [1]) was above 200 µM throughout.

Take `COC(=O)/C=C/c1ccc(O)c(OC)c1`: the IC50 (in the assay with KB; in assay [1]) was above 200 µM each time.

Consider `C=C=CCOc1ccc(COc2ccc(/C=C/C(=O)OC)cc2OC)cc1`, for which the IC50 in the assay on KB was determined as 34.6 µM; in assay [1] it was 30.3 µM.

Take `COC(=O)/C=C/c1ccc(O)cc1` [METHYL P-HYDROXYCINNAMATE]: the IC50 is 123 µM in the assay with KB and 101 µM in assay [1].

For the compound `OCc1ccc(O)cc1` [PARAHYDROXYBENZYL ALCOHOL], the IC50 (in the assay with KB; in assay [1]) was above 200 µM throughout.

In the case of `C=C=CCOc1ccc(C(=O)O)cc1`, the IC50 in the assay on KB is 40.6 µM; in assay [1] it was 49.6 µM.

In the case of `C=C=CCOC(=O)[C@]1(O)CC(OC(=O)/C=C/c2ccc(OCC=C=C)c(O)c2)[C@@H](O)[C@@H](O)C1` (stereo partly drawn), the 50% inhibitory concentration (IC50) was 53.1 µM in the assay with KB and 35.7 µM in assay [1].

On to `COC(=O)C1(N)CC1`, for which the results for the half-maximal inhibitory concentration (IC50) (in the assay on KB; in assay [1]) were 135 µM and above 200 µM, respectively.

As for `COC(=O)c1ccc(O)cc1` [METHYLPARABEN], the IC50 (in the assay on KB; in assay [1]) was above 200 µM throughout.

`O=C(/C=C/c1ccc(O)c(O)c1)OC1C[C@@](O)(C(=O)O)C[C@H](O)[C@@H]1O` (stereo partly drawn): the IC50 (in the assay on KB; in assay [1]) was above 200 µM throughout.

For `C=C=CCOc1ccc(/C=C/C(=O)OC)cc1OC`, the results for the IC50 (with KB; in assay [1]) were 17.4 µM and 18.3 µM, respectively.

Take `C=C=CCOc1ccc(COc2ccc(/C=C/C(=O)OC)cc2)cc1`: the IC50 with KB amounted to 48.8 µM; in assay [1] it was 55.5 µM.

As to `COC(=O)/C=C/c1ccc(O)c(O)c1` [METHYLCAFFEATE], the IC50 (in the assay on KB; in assay [1]) was above 200 µM throughout.

On to `C=C=CCOc1ccc(C(=O)OC)cc1`, for which the 50% inhibitory concentration (IC50) was 22.5 µM with KB and 20.9 µM in assay [1].

Regarding `C=C=CCOc1ccc(CO)cc1` [TERRICOLLENE C], the concentration for half-maximal inhibition (IC50) was 74.5 µM in the assay with KB and 76.6 µM in assay [1].

As to `C=C=CCOc1ccc(COc2ccc(C(=O)OC)cc2)cc1`, the IC50 was 75.4 µM in the assay with KB and 52.9 µM in assay [1].

With `C=C=CCOc1ccc(/C=C/C(=O)OC)cc1`, the values for the IC50 (with KB; in assay [1]) were 27.6 µM and 19 µM, respectively.

Take `C=C=CCOc1ccc(/C=C/C(=O)O)cc1`: the results for the IC50 (with KB; in assay [1]) were 71.5 µM and 52.4 µM, respectively.

In the case of `C=C=CCO`, the IC50 (in the assay with KB; in assay [1]) was above 200 µM each time.

For the compound `COC(=O)C1(NC(=O)/C=C/c2ccc(O)cc2)CC1`, the IC50 (with KB; in assay [1]) was above 200 µM each time.

As to `O=C(O)c1ccc(O)cc1` [PARABEN], the IC50 (in the assay with KB; in assay [1]) was above 200 µM in each case.

As to `C=C=CCOc1ccc(/C=C/C(=O)OC)cc1O`, the IC50 in the assay on KB came out at 29.4 µM; in assay [1], 23.4 µM.

On to `C=C=CCOc1ccc(/C=C/C(=O)NC2(C(=O)OC)CC2)cc1`, for which the values for the half-maximal inhibitory concentration (IC50) (with KB; in assay [1]) were 48.1 µM and 77 µM, respectively.

Turning to `C=C=CCBr`, the IC50 (in the assay on KB; in assay [1]) was above 200 µM in each case.
